In patent US8518942B2, “Caspase inhibitors and uses thereof” (Buck Institute for Research on Aging, priority 2008, dated 2013):

How the values were obtained:
Type in all cases: biochemical
caspase-7 = molecular target: T1, caspase-7 (Homo sapiens, UniProt P55210); experiment: Irreversible inhibitor kinetic assay (progress curve), caspase-7, substrate Ac-DEVD-AMC; conditions: casp-7; duplicate, SD included
T1 construct: gift: Guy Salvesen's laboratory, Burnham Institute (La Jolla, Calif.)
T1 sequence (P55210 24-198 limits assumed): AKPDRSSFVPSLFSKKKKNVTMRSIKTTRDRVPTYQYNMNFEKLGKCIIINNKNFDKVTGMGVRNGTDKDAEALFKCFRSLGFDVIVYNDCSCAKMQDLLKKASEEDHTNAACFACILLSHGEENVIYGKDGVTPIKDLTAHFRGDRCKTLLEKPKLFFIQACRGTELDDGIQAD
T1 sequence (P55210 207-303 limits assumed): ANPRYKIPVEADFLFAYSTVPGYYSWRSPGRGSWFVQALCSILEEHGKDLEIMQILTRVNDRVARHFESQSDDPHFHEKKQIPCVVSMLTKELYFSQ
Description: (§1) Caspases-3, -6, -7, -8, and -9 were provided by Guy Salvesen's laboratory at the Burnham Institute (La Jolla, Calif.). Caspase-1 was purchased from EMD Biosciences (San Diego, Calif.) and Caspase-2 was purchased from Biomol International (Plymouth Meeting, Pa.). Caspase substrates Ac-DEVD-AMC, Ac-VDVAD-AFC, and Ac-LEHD-AFC were purchased from EMD Biosciences (San Diego, Calif.) and Ac-VDVAD-AMC was purchased from Biomol International (Plymouth Meeting, Pa.). The proteolytic cleavage of N-acyl aminocoumarins by caspases was conducted in Dynatech Microfluor fluorescence 96-well microtiter plates, and readings were taken on a Molecular Devices Spectra Max Gemini XS instrument. The excitation wavelength was 370 nm and the emission wavelength was 455 nm for AMCA substrates, the excitation wavelength was 355 nm and the emission wavelength was 450 nm for peptidyl AMC substrates, and the excitation wavelength was 430 nm and the emission wavelength was 535 nm for peptidyl AFC substrates.
(§2) The kinact/Ki for inhibitors were determined under pseudo-first order conditions using the progress curve method (Eckici et al. (2006) J. Med. Chem., 49: 5728-5749; Bieth (1995) Meth. Enzymol., 248: 59-84). Assay wells contained a mixture of inhibitor and AMC or AFC substrate in buffer. Aliquots of caspase were added to each well to initiate the assay. Hydrolysis of the AMC or AFC substrate was monitored fluorometrically for 45 min. To determine the inhibition parameters, time points for which the control ([I]=0) was linear were used. For each inhibitor, a kobs was calculated for at least four different concentrations of inhibitors via a nonlinear regression of the data according to the equation P=(vi/kobs)[1−exp(−kobst) (where product formation=P, […], and the first-order rate constant=kobs). If kobs varied linearly with [I], then the association constant kass was determined by linear regression analysis using kobs=(kass[I])/(1+[S]/Km) where [S] is the concentration of the substrate. […] Inhibition was measured in duplicate and the average of is reported. […]

caspase-5 = molecular target: T2, caspase-5 (Homo sapiens, UniProt P51878); experiment: Irreversible inhibitor kinetic assay (progress curve), caspase-5, substrate Ac-WEHD-AMC; conditions: casp-5; duplicate, SD included
T2 sequence (P51878 137-327 limits assumed): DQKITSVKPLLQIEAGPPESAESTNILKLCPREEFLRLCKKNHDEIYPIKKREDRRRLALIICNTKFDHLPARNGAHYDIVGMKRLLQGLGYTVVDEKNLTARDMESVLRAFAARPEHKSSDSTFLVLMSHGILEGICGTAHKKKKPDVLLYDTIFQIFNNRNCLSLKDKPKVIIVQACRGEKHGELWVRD
T2 sequence (P51878 347-434 limits assumed): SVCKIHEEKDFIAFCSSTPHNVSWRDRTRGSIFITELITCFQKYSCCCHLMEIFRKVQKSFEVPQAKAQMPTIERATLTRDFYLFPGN
Description: as §1, §2

caspase-1 = molecular target: T3, caspase-1 (Homo sapiens, UniProt P29466); experiment: Irreversible inhibitor kinetic assay (progress curve), caspase-1, substrate Ac-WEHD-AMC; conditions: casp-1; duplicate, SD included
T3 construct: purchased EMD Biosciences (San Diego, Calif.)
T3 sequence (P29466 120-297 limits assumed): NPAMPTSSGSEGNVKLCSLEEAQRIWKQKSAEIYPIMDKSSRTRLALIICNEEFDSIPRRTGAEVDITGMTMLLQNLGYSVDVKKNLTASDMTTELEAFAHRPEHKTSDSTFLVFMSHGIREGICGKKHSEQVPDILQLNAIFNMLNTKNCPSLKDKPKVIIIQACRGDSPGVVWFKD
T3 sequence (P29466 317-404 limits assumed): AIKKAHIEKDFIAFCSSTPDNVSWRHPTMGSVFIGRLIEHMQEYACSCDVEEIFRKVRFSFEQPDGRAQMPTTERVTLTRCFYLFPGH
Description: as §1, §2

Row | Compound | kinact/Ki (caspase-7) | kinact/Ki (caspase-5) | kinact/Ki (caspase-1)
1 | C[C@@](NS(=O)(=O)Cc1ccccc1)(c1cn([C@@H](CC(=O)O)C(=O)COc2c(F)c(F)cc(F)c2F)nn1)C1CCCCC1 [MJL-001i] | 27,700 ± 2,000 s^−1/M^−1 | 2,250 ± 350 s^−1/M^−1 | 55,200 ± 2,600 s^−1/M^−1
2 | C[C@@](NC(=O)CCCC(=O)O)(c1cn([C@@H](CC(=O)O)C(=O)COc2c(F)c(F)cc(F)c2F)nn1)C1CCCCC1 [MJL-002i] | 57,250 ± 1,550 s^−1/M^−1 | 16,500 ± 850 s^−1/M^−1 | 243,250 ± 350 s^−1/M^−1
3 | C[C@@](NC(=O)Cc1ccccc1)(c1cn([C@@H](CC(=O)O)C(=O)COc2c(F)c(F)cc(F)c2F)nn1)C1CCCCC1 [MJL-003i] | 34,200 ± 3,800 s^−1/M^−1 | 3,300 ± 200 s^−1/M^−1 | 55,200 ± 200 s^−1/M^−1
